Data on ten molecules can be found in US11299510B2, “Substituted pyridopyrrolopyrimidine ribonucleosides for therapeutic uses” (USTAV ORGANICKE CHEMIE A BIOCHEMIE AV CR, V.V.I., priority 2018, dated 2022).

The structures appear in SMILES notation.

Holding throughout (assay type): cell-based
For test [1], the system named is Hep G2. Nature of the test: cytotoxic MTS test, Hep G2. The following applies: Homo sapiens, HepG2; Hep G2 cells.
Test [2] relates to K562 (human acute myeloid leukemia). Kind of test: cytotoxic MTS test, K562. The following applies: K562 cells. From the text: (§1) To evaluate the antitumor activity of newly prepared compounds for in vitro conditions, we used cytotoxic MTS test (Nosková V. et al., Neoplasma 2002, 49, 418-425) on cell lines derived from normal tissues or tumors. Specifically, cell lines K562 (human acute myeloid leukemia); K562-Tax (human acute myeloid leukemia, paclitaxel resistant subline, overexpress multiple drug resistant protein PgP); CEM (T-lymfoblastic leukemia); CEM-DNR-bulk (T-lymfoblastic leukemia, doxorubicin resistant); A549 (human lung adenocarcinoma); HCT116p53 wt (human colorectal cancer, wild-type); HCT116p53−/−(human colorectal cancer, mutant p53) a U2OS (human bone osteosarcoma) were used. Express characteristics, susceptibility profiles of classic antitumor drugs as well as methodology of cytotoxic MTS test have been repeatedly published (Denizot, F.; Lang, R., J. Immunol. Meth. 1986, 89, 271-277; Noskova, V., see above; Šarek J. et al., J, Med. Chem., 2003, 46, 5402-5415).

In test [3] the test system is HCT116p53−/− (human colorectal cancer, mutant p53). Nature of the test: cytotoxic MTS test, HCT116p53. The note with it: HCT116p53 cells.
Source text: as §1

Test [4] concerns CCRF-CEM. Nature of the test: cytotoxic MTS test, CCRF-CEM. The following applies: Homo sapiens; CCRF-CEM cells.
Source text: as §1

Test [5] has as its system CEM-DNR-bulk (T-lymfoblastic leukemia, doxorubicin resistant). Nature of the test: cytotoxic MTS test, CEM-DNR. The note with it: Homo sapiens; CEM-DNR cells.
Source text: as §1

The test system of test [6] is A549 (human lung adenocarcinoma). Nature of the test: cytotoxic MTS test, A549. The note with it: A549 cells.
Source text: as §1

The test system of test [7] is U2OS (human bone osteosarcoma). Kind of test: cytotoxic MTS test, U2OS. The note with it: U2OS cells.
Source text: as §1

In test [8] the test system is BJ (normal human fibroblasts). Nature of the test: cytotoxic MTS test, BJ. The note with it: BJ cells.
For test [9], the system named is HL 60. Nature of the test: cytotoxic MTS test, HL 60. The note with it: Homo sapiens; HL 60 cells.
The test system of test [10] is HeLa. Nature of the test: cytotoxic MTS test, HeLa. The following applies: Homo sapiens; HeLa cells.
In test [11] the test system is K562-Tax (human acute myeloid leukemia, paclitaxel resistant subline). Kind of test: cytotoxic MTS test, K562-TAX. The following applies: K562-TAX cells.
Source text: as §1

The subject of test [12] is HCT116p53 wt (human colorectal cancer, wild-type). Nature of the test: cytotoxic MTS test, HCT116. The following applies: HCT-116, HCT116 cells.
Source text: as §1

The test system of test [13] is CEM (T-lymfoblastic leukemia). Nature of the test: cytotoxic MTS test, CEM. The following applies: Homo sapiens, CCRF-CEM; CEM cells.
Source text: as §1

Test [14] has as its system MRC-5 (normal human fibroblasts). Nature of the test: cytotoxic MTS test, MRC-5. The following applies: MRC5, MRC-5 cells.

In the case of `CSc1ncnc2c1c1ccncc1n2[C@@H]1O[C@H](CO)[C@@H](O)[C@H]1O` [Compound 2b, 4-(methylsulfanyl)-9-(β-D-ribofuranosyl)-9H-pyrido[4′,3′:4,5]pyrrolo[2,3-d]pyrimidine], the concentration for half-maximal inhibition (IC50) in test [1] was in the range of 0.9 to 10 µM; in [2], 0.2 to 0.9 µM; in [3] it was 0.2 to 0.9 µM; in test [4], 0.2 to 0.9 µM; in test [5], 0.9 to 10 µM; in test [6], 10 to 25 µM. Also, the IC50 was 0.2 to 0.9 µM in test [7]; above 50 µM in [8]; 0.2 to 0.9 µM in [9]; 0.9 to 10 µM in test [10]; 0.9 to 10 µM in test [11]; 0.2 to 0.9 µM in test [12]. For the same molecule, the values for the IC50 in test [13] and in [14] were 0.2 to 0.9 µM and above 50 µM, respectively.

Regarding `OC[C@H]1O[C@@H](n2c3cccnc3c3c(-c4cc5ccccc5o4)ncnc32)[C@H](O)[C@@H]1O` [Compound 1i, 4-(benzofuran-2-yl)-9-(β-D-ribofuranosyl)-9H-pyrido[2′,3′:4,5]pyrrolo[2,3-d]pyrimidine], the IC50 in test [1] is above 50 µM; in test [2] it was above 50 µM; in test [3], above 50 µM; in test [4], 10 to 25 µM; in [5], above 50 µM; in test [6], above 50 µM. Besides, the IC50 in test [7], in test [8], in test [9], in [10], in test [11] and in test [12] was above 50 µM each time. Moreover, the IC50 in [13] and in [14] was above 50 µM throughout.

As to `Nc1ncnc2c1c1ncccc1n2[C@@H]1O[C@H](CO)[C@@H](O)[C@H]1O` [Compound 1c, 4-amino-9-(β-D-ribofuranosyl)-9H-pyrido[2′,3′:4,5]pyrrolo[2,3-d]pyrimidine], the IC50 in test [1] was 0.9 to 10 µM; in [2] it was 25 to 50 µM; in test [3], 25 to 50 µM; in test [4] it was 0.2 to 0.9 µM; in test [5], above 50 µM; in test [6], above 50 µM. Moreover, the IC50 in [7] was 0.9 to 10 µM; in [8], 0.9 to 10 µM; in test [9], 0.2 to 0.9 µM; in [10], above 50 µM; in test [11], above 50 µM; in test [12] it was 25 to 50 µM. The IC50 in [13] and in test [14] was above 50 µM each time.

For `Cc1ncnc2c1c1ncccc1n2[C@@H]1O[C@H](CO)[C@@H](O)[C@H]1O` [Compound 1d, 4-methyl-9-(β-D-ribofuranosyl)-9H-pyrido[2′,3′:4,5]pyrrolo[2,3-d]pyrimidine], the IC50 in [1] was above 50 µM; in [2] it was 10 to 25 µM; in test [3], above 50 µM; in [4] it was 0.2 to 0.9 µM; in test [5] it was above 50 µM; in test [6], above 50 µM. Moreover, the IC50 in [7] is 0.9 to 10 µM; in [8], above 50 µM; in test [9], above 50 µM; in test [10] it was above 50 µM; in test [11], above 50 µM; in test [12], above 50 µM. Besides, the IC50 in [13] and in test [14] was above 50 µM in each case.

For the molecule `OC[C@H]1O[C@@H](n2c3cccnc3c3c(-c4ccoc4)ncnc32)[C@H](O)[C@@H]1O` [Compound 1g, 4-(furan-3-yl)-9-(β-D-ribofuranosyl)-9H-pyrido[2′,3′:4,5]pyrrolo[2,3-d]pyrimidine], the IC50 in test [1], in test [2], in test [3], in test [4], in test [5] and in [6] was above 50 µM each time. The IC50 in test [7], in [8], in test [9], in test [10], in test [11] and in test [12] was above 50 µM in each case. The IC50 in test [13] and in test [14] was above 50 µM in each case.

On to `OC[C@H]1O[C@@H](n2c3cnccc3c3c(-c4ccoc4)ncnc32)[C@H](O)[C@@H]1O` [Compound 2g, 4-(furan-3-yl)-9-(β-D-ribofuranosyl)-9H-pyrido[4′,3′:4,5]pyrrolo[2,3-d]pyrimidine], for which the half-inhibitory concentration (IC50) in test [1], in test [2], in [3], in [4], in test [5] and in test [6] was above 50 µM each time. Moreover, the half-inhibitory concentration (IC50) in test [7], in test [8], in [9], in [10], in test [11] and in test [12] was above 50 µM throughout. Besides, the IC50 in test [13] and in [14] was above 50 µM throughout.

Consider `OC[C@H]1O[C@@H](n2c3cccnc3c3c(-c4ccco4)ncnc32)[C@H](O)[C@@H]1O` [Compound 1f, 4-(furan-2-yl)-9-(β-D-ribofuranosyl)-9H-pyrido[2′,3′:4,5]pyrrolo[2,3-d]pyrimidine], for which the IC50 in [1], in test [2], in test [3], in [4], in test [5] and in [6] was above 50 µM throughout. In addition, the IC50 in [7], in [8], in test [9], in test [10], in test [11] and in test [12] was above 50 µM throughout. Also, the IC50 in [13] and in test [14] was above 50 µM in each case.

For `OC[C@H]1O[C@@H](n2c3cccnc3c3c(-c4ccsc4)ncnc32)[C@H](O)[C@@H]1O` [Compound 1h, 4-(thiophen-3-yl)-9-(β-D-ribofuranosyl)-9H-pyrido[2′,3′:4,5]pyrrolo[2,3-d]pyrimidine], the IC50 in test [1], in [2], in test [3], in test [4], in test [5] and in [6] was above 50 µM in each case. Besides, the IC50 in [7], in [8], in [9], in test [10], in test [11] and in test [12] was above 50 µM throughout. The IC50 in test [13] and in [14] was above 50 µM each time.

As to `Cc1ncnc2c1c1ccncc1n2[C@@H]1O[C@H](CO)[C@@H](O)[C@H]1O` [Compound 2d, 4-methyl-9-(β-D-ribofuranosyl)-9H-pyrido[4′,3′:4,5]pyrrolo[2,3-d]pyrimidine], the 50% inhibitory concentration (IC50) was 0.9 to 10 µM in [1]; 0.9 to 10 µM in [2]; 0.9 to 10 µM in test [3]; 0.2 to 0.9 µM in test [4]; 0.9 to 10 µM in test [5]; above 50 µM in test [6]. Besides, the IC50 lay in the range of 0.9 to 10 µM in [7]; 0.9 to 10 µM in [8]; 0.2 to 0.9 µM in test [9]; 0.9 to 10 µM in [10]; 0.9 to 10 µM in test [11]; 0.9 to 10 µM in test [12]. The IC50 in test [13] was 0.2 to 0.9 µM; in [14] it was above 50 µM.

With `OC[C@H]1O[C@@H](n2c3cnccc3c3c(-c4cc5ccccc5o4)ncnc32)[C@H](O)[C@@H]1O` [Compound 2i, 4-(benzofuran-2-yl)-9-(β-D-ribofuranosyl)-9H-pyrido[4′,3′:4,5]pyrrolo[2,3-d]pyrimidine], the concentration for half-maximal inhibition (IC50) in test [1] was above 50 µM; in test [2], 10 to 25 µM; in test [3], 10 to 25 µM; in [4], 0.9 to 10 µM; in test [5], 10 to 25 µM; in [6], 10 to 25 µM. In addition, the IC50 in test [7] was 10 to 25 µM; in [8], 25 to 50 µM; in test [9] it was above 50 µM; in test [10], above 50 µM; in test [11], 10 to 25 µM; in [12], 0.9 to 10 µM. Also, the IC50 in test [13] is above 50 µM; in [14], 10 to 25 µM.
